In the CheMixHub viscosity set:

Assay: xn = mol fraction of the nth substance listed

CCCCC + CCCCCCCCCCCCCCCC
298.15 K, 101.33 kPa
Details	viscosity [mPa·s]
x1 = 0.1111	2.574
x1 = 0.2119	2.17
x1 = 0.3099	1.816
x1 = 0.4166	1.457
x1 = 0.5122	1.172
x1 = 0.6089	0.9218
x1 = 0.7034	0.7004
x1 = 0.8034	0.5086
x1 = 0.9029	0.3464

CS(C)=O + CCCCCCCO
101 kPa
Details	viscosity [mPa·s]
303.15 K, x1 = 0.1547	4.098
303.15 K, x1 = 0.3356	3.3
303.15 K, x1 = 0.4628	2.842
303.15 K, x1 = 0.5727	2.55
303.15 K, x1 = 0.6715	2.336
303.15 K, x1 = 0.7519	2.179
303.15 K, x1 = 0.8247	2.052
303.15 K, x1 = 0.8847	1.987
303.15 K, x1 = 0.9327	1.891
313 K, x1 = 0.1239	3.068
313 K, x1 = 0.2133	2.75
313 K, x1 = 0.2979	2.528
313 K, x1 = 0.4847	2.188
313 K, x1 = 0.5993	1.998
313 K, x1 = 0.7039	1.839
313 K, x1 = 0.8016	1.743
313 K, x1 = 0.9028	1.621

CCCCC(=O)OCC + CCCCCCO
viscosity [mPa·s], 101.33 kPa
Details	x1 = 0.1071	x1 = 0.2022	x1 = 0.3018	x1 = 0.3929	x1 = 0.5117	x1 = 0.6028	x1 = 0.7035	x1 = 0.8025	x1 = 0.9053
293.15 K	3.938	3.209	2.61	2.177	1.74	1.483	1.258	1.086	0.946
303.15 K	3.004	2.46	2.012	1.688	1.362	1.17	1.002	0.873	0.769
313.15 K	2.257	1.873	1.558	1.329	1.1	0.964	0.846	0.755	0.682

CCCCCCCO + CCCCCCO
viscosity [mPa·s], 101.8 kPa
Details	x2 = 0.1128	x2 = 0.3611	x2 = 0.5306	x2 = 0.6915	x2 = 0.9117
298.15 K	5.786	5.339	5.173	4.875	4.5
308.15 K	4.235	3.946	3.829	3.625	3.347
318.15 K	3.16	2.963	2.879	2.737	2.535
